# Source: patent US20060147388A1, “Pharmaceutical compositions for nasal delivery” (priority 2003, published 2006)
# Where “and” joins values, the source holds several entries; their conditions need not be identical. Equal entries are not always repeated.
# Test system: ‘off’ period in subjects with PD
# Assay: Single-dose reversal of 'off' period in subjects with PD, subcutaneous vs intra-nasal apomorphine
# Assay type: in vivo, human
# Details: for Duration of ‘on’ response / Latency for ‘on’ response: s/c (subcutaneous), normal dose 2-5 mg, individual PD subjects 1-6
# Text: The nasal powder formulation used in this study was in accordance with this invention prepared using the method of Method example 1 and comprised the following components:
# Six subjects with PD complicated by motor fluctuations were studied, 5 male (mean age 64 years, range 57-70 years), […]. The mean duration of disease was 13 years (range 7-24 years). […] On each dosing day the subjects attended the clinic and their normal oral medication was withheld until an ‘off’ episode developed. Each subject then received the designated apomorphine dose (subcutaneous or nasal). The abbreviated Unified PD Rating Scale (UPDRS) was used to assess motor performance at regular intervals following each apomorphine dosing. The time for the ‘off’ period to be fully alleviated and the duration of this response were determined primarily by patient feedback and supported by clinical judgement and the UPDRS scores.
# [1] = subcutaneous dosing 2-5 mg, mean of 6 subjects
structure (smiles),measurement,setting,value
"CN1CCc2cccc3c2[C@H]1Cc1ccc(O)c(O)c1-3 [subcutaneous apomorphine, Apomorphine]",Duration of ‘on’ response,subcutaneous dose 2 mg,75 min and 96 min
same,Latency for ‘on’ response,subcutaneous dose 2 mg,20 min
same,Duration of ‘on’ response,subcutaneous dose 4 mg,65 min and 48 min and 43 min
same,Latency for ‘on’ response,subcutaneous dose 4 mg,14 min (2×) and 30 min
same,Duration of ‘on’ response,subcutaneous dose 5 mg,46 min
same,Latency for ‘on’ response,subcutaneous dose 5 mg,61 min
same,Mean duration of ‘on’ response,[1],62 min
same,Mean latency of ‘on’ response,[1],27 min
same,Range of latency of response,"subcutaneous dosing 2-5 mg, range over 6 subjects",14 to 61 min
same,Range of duration of response,"subcutaneous dosing, range over 6 subjects",43 to 96 min
